Assay results published in patent US7285566B2, “Resistance-repellent retroviral protease inhibitors” (priority 2002, dated 2007).

How the values were obtained:
D30N mutant HIV protease = D30N mutant HIV protease (Human immunodeficiency virus type 1 group M subtype B, UniProt P03367, D530N); experiment: Effect of D30N protease mutation on inhibitor binding
[1] = tested on: highly cross-resistant clinical HIV-1 strains; experiment: In vitro activity against highly PI-resistant clinical HIV-1 strains from AIDS patients; assay type: cell-based; details: for potency against the multidrug resistant strains of HIV: multidrug resistant vs wild type strains
Experimental: The sensitivities of HIV-1LAI, HIV-1Ba-L, HIV-2EHO and the primary HIV-1 isolates against various drugs were determined as previously described with minor modifications (Shiraska et al., Proc. Natl. Acad. Sci. USA, 92, 2398-2402 (1995)).

HIV-1UIC-P62 = experiment: Sensitivity of compound 1-selected HIV-1 (passage 62) to PIs; assay type: cell-based; details: for sensitivity compared with the parental HIV-1NL4-3: HIV-1UIC-P62; for IC50 fold greater than that of HIV-1NL4-3: HIV-1UIC-P62 (passage 62 with 2 μM 1) vs parental HIV-1NL4-3

Row | SMILES | effect of D30N mutation on binding (D30N mutant HIV protease) | potency against the multidrug resistant strains of HIV [1] | level of resistance of the clinical strains ([1]; compared to wild-type clinical strain HIV-1ERS104pre) | sensitivity compared with the parental HIV-1NL4-3 (HIV-1UIC-P62) | IC50 fold greater than that of HIV-1NL4-3 (HIV-1UIC-P62)
1 | COc1ccc(S(=O)(=O)N(CC(C)C)C[C@@H](O)[C@H](Cc2ccccc2)NC(=O)O[C@H]2CO[C@H]3OCC[C@H]32)cc1 [Compound 1] | no effect |  |  |  | 
2 | CC(C)CN(C[C@@H](O)[C@H](Cc1ccccc1)NC(=O)O[C@H]1CCOC1)S(=O)(=O)c1ccc(N)cc1 [Compound 2, Amprenavir] |  | dramatically less potent |  |  | 
3 | CC(C)(C)NC(=O)[C@@H]1C[C@@H]2CCCC[C@@H]2CN1C[C@@H](O)[C@H](Cc1ccccc1)NC(=O)[C@H](CC(N)=O)NC(=O)c1ccc2ccccc2n1 [Compound 4, Saquinavir] |  | dramatically less potent | 3-31 fold | as sensitive | 
4 | CC(C)c1nc(CN(C)C(=O)N[C@H](C(=O)N[C@@H](Cc2ccccc2)C[C@H](O)[C@H](Cc2ccccc2)NC(=O)OCc2cncs2)C(C)C)cs1 [Compound 5, Ritonavir] |  | dramatically less potent |  | as sensitive | 
5 | CC(C)(C)NC(=O)[C@@H]1CN(Cc2cccnc2)CCN1C[C@@H](O)C[C@@H](Cc1ccccc1)C(=O)N[C@H]1c2ccccc2C[C@H]1O [Compound 6, Indinavir] |  | dramatically less potent |  |  | 7 fold
6 | Cc1c(O)cccc1C(=O)N[C@@H](CSc1ccccc1)[C@H](O)CN1C[C@H]2CCCC[C@H]2C[C@H]1C(=O)NC(C)(C)C [Compound 7, Nelfinavir] |  | dramatically less potent |  |  | 5 fold
